Measured values taken from patent publication US5077407A, “Substituted 2-[monoannelated (3,4-,4,5-, and 5,6-) pyridylalkylenesulfinyl]benzimidazoles” (The Upjohn Company, priority 1988, dated 1991).
Where two headings read alike, the source gives them in different places. Blank lines part the entries; values can stand above or below the compound they belong to.

Experiments:
(H^+ -K^+)ATP-ase = target: T1, (H^+ -K^+)ATP-ase (Rattus norvegicus, UniProt P09626); test: in vivo inactivation of (H+-K+)ATP-ase in the rat; conditions: for t1/2 of inhibition of rat gastric (H+ + K+) ATPase activity (duration of action): 10 mg/kg subcutaneously
T1 construct: from tissue; host or cells: stomach of the living rat (subcutaneous dosing)
T1 sequence (P09626 2-1033 limits assumed): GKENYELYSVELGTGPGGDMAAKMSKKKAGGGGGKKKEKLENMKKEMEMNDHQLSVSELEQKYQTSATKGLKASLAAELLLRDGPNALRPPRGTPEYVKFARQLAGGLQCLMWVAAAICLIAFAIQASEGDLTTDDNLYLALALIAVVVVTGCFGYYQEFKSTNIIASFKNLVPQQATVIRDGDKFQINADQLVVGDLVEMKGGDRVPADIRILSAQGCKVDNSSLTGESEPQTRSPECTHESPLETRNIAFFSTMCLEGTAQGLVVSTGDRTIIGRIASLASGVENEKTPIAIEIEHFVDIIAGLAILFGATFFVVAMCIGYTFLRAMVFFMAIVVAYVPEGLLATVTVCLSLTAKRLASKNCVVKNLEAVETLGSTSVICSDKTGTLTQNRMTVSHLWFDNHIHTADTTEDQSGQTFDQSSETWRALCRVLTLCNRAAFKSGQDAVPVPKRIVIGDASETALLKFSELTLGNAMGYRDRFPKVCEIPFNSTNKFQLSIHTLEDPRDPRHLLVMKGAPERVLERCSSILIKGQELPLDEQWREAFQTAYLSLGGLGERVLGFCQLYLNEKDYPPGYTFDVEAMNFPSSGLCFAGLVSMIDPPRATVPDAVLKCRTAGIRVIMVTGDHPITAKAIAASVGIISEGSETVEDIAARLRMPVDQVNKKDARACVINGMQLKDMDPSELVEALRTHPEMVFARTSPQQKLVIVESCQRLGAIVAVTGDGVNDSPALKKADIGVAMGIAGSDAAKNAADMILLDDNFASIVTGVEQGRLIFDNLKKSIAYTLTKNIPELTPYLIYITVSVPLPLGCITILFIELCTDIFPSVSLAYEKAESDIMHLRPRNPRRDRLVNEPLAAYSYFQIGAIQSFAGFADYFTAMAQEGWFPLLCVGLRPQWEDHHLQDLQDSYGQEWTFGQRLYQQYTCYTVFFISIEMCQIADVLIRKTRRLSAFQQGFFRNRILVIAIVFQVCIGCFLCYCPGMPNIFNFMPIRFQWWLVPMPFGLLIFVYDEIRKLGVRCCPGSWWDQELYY
T1 sequence (P18598 whole entry partner): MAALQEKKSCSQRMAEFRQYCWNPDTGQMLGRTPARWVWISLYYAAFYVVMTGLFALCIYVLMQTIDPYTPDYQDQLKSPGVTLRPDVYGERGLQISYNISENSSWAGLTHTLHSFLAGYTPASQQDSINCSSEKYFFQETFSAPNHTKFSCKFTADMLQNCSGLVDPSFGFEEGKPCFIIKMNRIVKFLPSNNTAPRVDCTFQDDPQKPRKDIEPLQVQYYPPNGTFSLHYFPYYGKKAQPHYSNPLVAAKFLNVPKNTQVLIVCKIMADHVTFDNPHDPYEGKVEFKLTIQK
Description: Certain of the compounds of this invention are preferred because of their long duration of action when administered parenterally (e.g., subcutaneously).

[1] = test system: acid secretion in isolated gastric glands; test: inhibition of acid secretion in isolated gastric glands of the rabbit; format: cell-based; conditions: Oryctolagus cuniculus, read-out: ID50, inhibition of acid secretion
gastric acid secretion = test: rat gastric antisecretory assay; format: in vivo
gastric(H^+ -K^+)ATP-ase = target: T2, gastric(H^+ -K^+)ATP-ase (Sus scrofa, UniProt P19156); test: inhibition of K+-dependent ATP hydrolysis by isolated hog gastric membranes enriched with gastric (H+-K+)ATP-ase; format: biochemical; conditions: read-out: ED50, inhibition of K+-dependent ATP hydrolysis
T2 construct: isolated hog gastric membranes; from tissue; host or cells: hog gastric membranes
T2 sequence (P19156 2-1034 limits assumed): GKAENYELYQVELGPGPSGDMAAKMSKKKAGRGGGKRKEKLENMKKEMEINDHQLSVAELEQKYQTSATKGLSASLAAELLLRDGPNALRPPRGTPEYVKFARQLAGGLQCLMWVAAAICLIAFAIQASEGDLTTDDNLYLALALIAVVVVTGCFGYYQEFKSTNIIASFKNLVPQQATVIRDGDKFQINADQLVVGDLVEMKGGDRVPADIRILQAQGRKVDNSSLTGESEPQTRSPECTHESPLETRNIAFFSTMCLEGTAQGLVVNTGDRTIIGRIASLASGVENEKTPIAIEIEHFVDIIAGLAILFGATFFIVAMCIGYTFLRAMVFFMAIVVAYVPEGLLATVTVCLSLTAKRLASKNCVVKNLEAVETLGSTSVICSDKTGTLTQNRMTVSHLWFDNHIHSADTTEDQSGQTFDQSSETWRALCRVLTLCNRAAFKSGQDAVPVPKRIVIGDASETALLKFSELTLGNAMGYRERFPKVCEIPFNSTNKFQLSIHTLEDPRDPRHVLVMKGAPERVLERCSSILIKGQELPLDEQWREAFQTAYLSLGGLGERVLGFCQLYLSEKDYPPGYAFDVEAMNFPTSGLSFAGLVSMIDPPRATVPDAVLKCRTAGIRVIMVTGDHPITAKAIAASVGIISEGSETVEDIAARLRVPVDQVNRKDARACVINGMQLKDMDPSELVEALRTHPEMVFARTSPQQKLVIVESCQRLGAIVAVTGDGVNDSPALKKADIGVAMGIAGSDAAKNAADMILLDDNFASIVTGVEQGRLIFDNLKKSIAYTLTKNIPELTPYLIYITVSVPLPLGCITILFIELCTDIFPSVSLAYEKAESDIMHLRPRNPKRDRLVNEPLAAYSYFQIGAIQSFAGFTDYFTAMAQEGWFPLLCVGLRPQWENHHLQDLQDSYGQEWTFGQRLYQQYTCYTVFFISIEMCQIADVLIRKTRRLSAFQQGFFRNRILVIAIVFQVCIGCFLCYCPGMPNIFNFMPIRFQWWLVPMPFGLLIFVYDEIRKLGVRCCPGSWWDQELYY
T2 sequence (P18434 whole entry partner): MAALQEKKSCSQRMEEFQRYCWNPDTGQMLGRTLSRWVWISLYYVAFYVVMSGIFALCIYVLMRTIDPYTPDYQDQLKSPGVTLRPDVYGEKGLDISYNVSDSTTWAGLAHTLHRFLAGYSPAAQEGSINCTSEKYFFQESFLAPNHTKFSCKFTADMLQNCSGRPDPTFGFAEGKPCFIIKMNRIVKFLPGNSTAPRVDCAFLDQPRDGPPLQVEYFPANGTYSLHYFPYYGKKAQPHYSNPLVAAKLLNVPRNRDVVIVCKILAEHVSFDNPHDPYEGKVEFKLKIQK

- t1/2 of inhibition of rat gastric (H+ + K+) ATPase activity (duration of action) ((H^+ -K^+)ATP-ase): 96 h
SMILES: [O-][S+](Cc1nccc2c1CCCC2)c1nc2ccccc2[nH]1 (stereo not shown) [2-[(5,6,7,8-tetrahydroisoquinolin-1-ylmethyl)sulfinyl]benzimidazole]

- IC50 [1]: 0.8 µM
SMILES: COc1ccc2nc([S+]([O-])Cc3nccc4c3CCCC4)[nH]c2c1 (stereo not shown) [Example 4, 2-[(5,6,7,8-Tetrahydroisoquinolin-1-yl)methyl]sulfinyl-5-methoxybenzimidazole]
- ED50 (gastric acid secretion; sc, administered subcutaneously, read-out: ED50, inhibition of gastric acid secretion): 1.8 mg/kg

- ED50 ((H^+ -K^+)ATP-ase; sc, administered subcutaneously): 1 mg/kg
- IC50 (gastric(H^+ -K^+)ATP-ase): 10 µM
SMILES: COc1ccc2nc([S+]([O-])Cc3nccc4c3CCCO4)[nH]c2c1 (stereo not shown) [Example 6, 2-[(6-Azachroman-5-yl)methyl]sulfinyl-5-methoxybenzimidazole]
- ED50 (gastric acid secretion; administered intraduodenally, read-out: ED50, rat gastric antisecretory assay): 0.7 mg/kg

- t1/2 of inhibition of rat gastric (H+ + K+) ATPase activity (duration of action) ((H^+ -K^+)ATP-ase): 48 h
SMILES: [O-][S+](Cc1nccc2c1CCCS2)c1nc2ccccc2[nH]1 (stereo not shown) [Example 10, 2-[(5-Thia-5,6,7,8-tetrahydroisoquinolin-1-ylmethyl)sulfinyl]-benzimidazole]
